Assay results from patent US9079821B2, “Quinone based nitric oxide donating compounds” (NICOX S.A., priority 2011, dated 2015).

Tests used:
[1] = Pharmacokinetic profile in mice (blood 15N-nitrite levels); assay type: in vivo; settings: CD1 mice
Procedure: (§1) The absorption and in vivo NO-donating property of the compounds of the invention were assessed by the evaluation of blood ^15N-nitrite levels following oral administration.
Tested Compounds: • 10-(4,5-dimethoxy-2-methyl-3,6-dioxocyclohexa-1,4-dienyl)decyl nitrate-nitrogen-15 which correspond to compound (6) containing nitrogen-15 (^15N-Compound (6)); • 5-isorbide mononitrate containing nitrogen-15 (5-ISM^15N)
Male CD1 mice (n=3/time point) were orally treated with ^15N-Compound (6) at 100 mg/kg or 5-ISM^15N (30 mg/kg). At each time point (5, 10, 15, 30, 60, 120, 240, 360, 480 and 1440 min) blood was taken by cardiac puncture using heparin to avoid blood clotting. Blood samples were immediately protein crushed. Samples were analyzed by LC-MS/MS. ^15N-nitrite levels following oral administration of Compound (6) (100 mg/kg) or 5-ISM^15N (30 mg/kg) in CD1 mice are reported in Table 6.

[2] = Pharmacokinetic profile in rats (blood 15N-nitrite levels); assay type: in vivo, rat; settings: rat, in vivo, po, 30 mg/kg
Procedure: as §1
Tested Compounds: • 5-(2,4,5-trimethyl-3,6-dioxocyclohexa-1,4-dienylpentyl nitrate-nitrogen-15 which corresponds to compound (1) containing nitrogen-15 (^15N-Compound (1)); • 5-(4,5-dimethoxy-2-methyl-3,6-dioxocyclohexa-1,4-dienyl)pentyl nitrate-nitrogen-15 which corresponds to compound (2) containing nitrogen-15 (^15N-Compound (2)); • 4-(2,4,5-trimethyl-3,6-dioxocyclohexa-1,4-dienyl)butyl nitrate-nitrogen-15 which corresponds to compound (3) containing nitrogen-15 (^15N-Compound (3)); • 4-(4,5-dimethoxy-2-methyl-3,6-dioxocyclohexa-1,4-dienyl)butyl nitrate-nitrogen-15 which corresponds to compound (4) containing nitrogen-15 (^15N-Compound (4)); • 10-(2,4,5-trimethyl-3,6-dioxocyclohexa-1,4-dienyl)decyl nitrate-nitrogen-15 which corresponds to compound (5) containing nitrogen-15 (^15N-Compound (5)); • 10-(4,5-dimethoxy-2-methyl-3,6-dioxocyclohexa-1,4-dienyl)decyl nitrate-nitrogen-15 which corresponds to compound (6) containing nitrogen-15 (^15N-Compound (6)); • 3-(3-(4,5-dimethoxy-2-methyl-3,6-dioxocyclohexa-1,4-dienyl)propoxy)propyl nitrate-nitrogen-15 which corresponds to compound (14) containing nitrogen-15 (^15N-Compound (14)); • 6-(2,4,5-trimethyl-3,6-dioxocyclohexa-1,4-dienyl)hexyl nitrate-nitrogen-15 which corresponds to compound (15) containing nitrogen-15 (^15N-Compound (15)); • 6-(4,5-dimethoxy-2-methyl-3,6-dioxocyclohexa-1,4-dienyl)hexyl nitrate-nitrogen-15 which corresponds to compound (16) containing nitrogen-15 (^15N-Compound (16)); • 11-(4,5-dimethoxy-2-methyl-3,6-dioxocyclohexa-1,4-dienyl)-undecane-1,2-diyl dinitrate-nitrogen-15 which corresponds to compound (17) containing nitrogen-15 (^15N-Compound (17)); • 8-(5-methoxy-2,4-dimethyl-3,6-dioxocyclohexa-1,4-dienyl)octyl nitrate-nitrogen—which corresponds to compound (19) containing nitrogen-15 (^15N-Compound (19)); • 2-(3-(4,5-dimethoxy-2-methyl-3,6-dioxocyclohexa-1,4-dienyl)propoxy)ethyl nitrate-nitrogen-15 which corresponds to compound (20) containing nitrogen-15 (^15N-Compound (20)); • 6-(3-methyl-1,4-dioxo-1,4-dihydronaphthalen-2-yl)hexyl nitrate-nitrogen-15 which corresponds to compound (23) containing nitrogen-15 (^15N-Compound (23)); • 3-(3-(3-methyl-1,4-dioxo-1,4-dihydronaphthalen-2-yl)propoxy)propyl nitrate-nitrogen-15 which corresponds to compound (25) containing nitrogen-15 (^15N-Compound (25)); • 6-(5-methoxy-2,4-dimethyl-3,6-dioxocyclohexa-1,4-dienyl)hexyl nitrate-nitrogen-15 which corresponds to compound (28) containing nitrogen-15 (^15N-Compound (28)); • 6-(4-methoxy-2,5-dimethyl-3,6-dioxocyclohexa-1,4-dienyl)hexyl nitrate-nitrogen-15 which corresponds to compound (29) containing nitrogen-15 (^15N-Compound (29)); • 8-(4-methoxy-2,5-dimethyl-3,6-dioxocyclohexa-1,4-dienyl)octyl nitrate-nitrogen-15 which corresponds to compound (32) containing nitrogen-15 (^15N-Compound (32)); • 8-(2,4,5-trimethyl-3,6-dioxocyclohexa-1,4-dienyl)octyl nitrate-nitrogen-15 which corresponds to compound (34) containing nitrogen-15 (^15N-Compound (34)); • 5-isorbide mononitrate containing nitrogen-15 (5-ISM^15N).
(§2) Cannulated SD rats were orally treated with ^15N-Compounds (6) at 30 mg/kg, 5-ISM^15N (30 mg/kg), or ^15N-Compounds (1)-(5), 14)-(17), (19), (20), (23), (25), (28), (29), (32), (34) at 30 mg/kg. At each time point (5, 10, 15, 30, 60, 180, 360 and 1440 min) blood was taken using heparin to avoid blood clotting. Blood samples were immediately protein crushed. Samples were analyzed by LC-MS/MS.
In Table 7 are reported ^15N-nitrite blood levels following oral administration of SD rats with 5-ISM^15N (30 mg/kg) or with ^15N-labeled corresponding compounds of the invention (30 mg/kg).

[3] = Blood 15N-nitrite levels in the rat L-NAME-induced hypertension study; assay type: in vivo; settings: 5-ISMN 30 mg/kg oral
Procedure: (§3) Fasted male SD rats (250-300 g, n=3-5 per group), obtained from Harlan Italy (Correzzana, Milan, Italy) were orally treated with tested compounds or vehicle (DMSO:Methocel 1% 2/98 v/v) in a total volume of 4 ml/kg by gavage. At each time point (1, 3, 6 and 24 h) animals were deeply anesthetized with Zoletil® 100 (3 mg/kg), given intramuscularly. Thereafter, a pressure catheter (Samba Sensors, Harvard Apparatus, UK) was introduced into the common carotid artery for central blood pressure measurement. Pressure transducer was connected to a personal computer, in order to allow real time monitor of the pressure tracing. After 10 minutes of basal recording, L-NAME (50 mg/kg) was administered intraperitoneally and the effect on SBP monitored. When the SBP stabilized (5 minutes without variations) the recording was stopped. To further confirm that functional activity was NO-dependent, at each time point blood ^15N-nitrite levels were measured following the procedure described in Example 12.
as §2

[4] = system: rat aorta, endothelial-dependent vasodilation (response to ACh); experiment: Endothelial dysfunction evaluation (vascular response to acetylcholine after treatment); assay type: in vivo; settings: for % relaxation (Emax): response to ACh
Procedure: (§4) Thoracic aortas from male New Zealand rabbits or male Sprague Dawley (SD) were used. The aortas were placed immediately in Krebs-HEPES buffer (pH 7.4; composition mM: NaCl 130.0, KCl 3.7, NaHCO3 14.9, KH2PO4 1.2, MgSO4.7H2O 1.2, Glucose 11.0, HEPES 10.0, CaCl2.2H2O 1.6). Connective tissue was removed and aortas were cut into ring segments (4-5 mm in length). Each ring was placed in a 5 mL tissue bath filled with Krebs-HEPES buffer (37° C.) aerated with 95% O2 and 5% CO2 and was attached to a force transducer (Grass FT03), connected to a BIOPAC MP150 System for measurement of the isometric tension. Preparations were allowed to equilibrate for 1 h at a resting tension of 2 g for rabbit aortas and 1 g for rat aortas with changes of the buffer every 15 min. Then the rings were stimulated by exposure to 90 mM KCl (3 times) with intervening washings.
(§5) Rat aorta. After equilibration, rat aortas were precontracted with KCl (90 mM) and, when the contraction was stable, a cumulative concentration-response curve to acetylcholine (ACh, 0.01-100 μM) was added. After washout, the rings were precontracted again with KCl (90 mM). When a steady-state level of contraction was obtained, a cumulative concentration-response curve to the tested compounds (0.01-100 μM) was obtained.
(§6) Data analysis. Results are given as mean±SEM. Vascular responses are expressed as percentage relaxation and plotted vs concentration. The sensitivity of isolated aorta to different vasodilators is expressed as the concentration that elicited 50% of the maximal responses (EC50). Responses are quantified in terms of EC50 and Emax (maximal vasodilating effect) values, obtained from the concentration-response curve by nonlinear curve fitting, using GraphPad software.
Endothelial-dependent vasodilation (vascular response to acetylcholine, ACh) was assessed following 5-day treatment with Compound (6) (100 mg/kg) or 5-ISMN (30 mg/kg). A relaxant response to ACh indicated the presence of a functional endothelium. The vascular response was performed as described in Example 6.

[5] = system: rat L-NAME-induced hypertension; experiment: Rat L-NAME-induced hypertension, systolic blood pressure after single oral dose; assay type: in vivo; settings: for Delta vs basal (mmHg): 5-ISMN 30 mg/kg oral, L-NAME 50 mg/kg i.p.
Procedure: To assess the in vivo NO-dependent activity, Compound (6) was evaluated for systolic blood pressure (SBP) reduction efficacy in a rat model of NO-deprivation induced by L-NAME and compared with 5-ISMN.
as §3

[6] = system: rat L-NAME-induced hypertension; experiment: In vivo tolerance evaluation (L-NAME-induced hypertension after 5-day oral treatment); settings: for Delta vs basal (mmHg): peak effect 1 hour
Procedure: as §3
To investigate whether the compound (6) induced nitrate tolerance, as observed for most of the drugs belonging to the nitrate class, the L-NAME-induced hypertension rat model described in Example 7 was performed following a repeated oral treatment. Rats were orally treated for 5 days with vehicle, compound (6) (100 mg/kg) or 5-ISMN (30 mg/kg). […] The experiments were performed at the peak effect (1 hour for 5-ISMN and 3 hours for Compound (6)), results are reported in Table 3.

[7] = system: isolated aortas from rats; experiment: Ex vivo tolerance evaluation (vascular response of isolated aortas from treated rats); assay type: in vivo, rat; settings: for EC50: vascular response to 5-ISMN, 1 h after last administration
Procedure: as §4, §5, §6
Tolerance to nitrate was further investigated assessing the vascular effects of Compound (6) following repeated treatment compared with 5-ISMN. The vascular response to the compound itself was assessed on isolated aortas from rats orally treated for 5 days with Compound (6) (100 mg/kg). The vascular response was performed as described in Example 6.
Vascular responses were performed 1 h (ISMN) or 3 h (Compound (6)) after the last administration, the concentrations of tested compound that elicited the 50% of the maximal responses (EC50) are shown in Table 4.

O=[N+]([O-])O[C@@H]1CO[C@H]2[C@@H]1OC[C@@H]2O [5-ISM^15N, 5-isorbide mononitrate containing nitrogen-15, reference compound]
15N-nitrite AUC0-24 ([1]; oral 30 mg/kg): 2758 µM·min | 15N-nitrite Tmax ([1]; oral 30 mg/kg): 30 min | Cmax ([1]; oral 30 mg/kg): 27.5 ± 3 µM | 15N-nitrite AUC0-24 [2]: 7399 µM·min | 15N-nitrite Tmax [2]: 60 min | Cmax [2]: 20.6 ± 4.2 µM

O=[N+]([O-])O[C@@H]1CO[C@H]2[C@@H]1OC[C@@H]2O [Compound 5-ISMN, isosorbide-5-mononitrate, reference compound]
15N-nitrite levels ([3]; 1 hour): 11.0 ± 0.5 µM | 15N-nitrite levels ([3]; 3 hours): 8.7 ± 0.7 µM | 15N-nitrite levels ([3]; 6 hours): 6.5 ± 0.5 µM | 15N-nitrite levels ([3]; 24 hours): 0.34 ± 0.06 µM | effect on endothelial-dependent vasorelaxation, in words ([4]; 5-ISMN 30 mg/kg, 5-day treatment): caused a reduced response to Ach | % relaxation (Emax) ([4]; acute, 5-ISMN 30 mg/kg): 92.7 ± 4.3% | % relaxation (Emax) ([4]; repeated (5-day) 5-ISMN 30 mg/kg): 78.2 ± 9.2% | Delta vs basal (mmHg) ([5]; 1 hour): 10.5 ± 6.1 mmHg | Delta vs basal (mmHg) ([5]; 3 hours): 6.5 ± 2.4 mmHg | Delta vs basal (mmHg) ([5]; 6 hours): 51.2 ± 5.7 mmHg | Delta vs basal (mmHg) ([5]; 24 hours): 83 ± 9 mmHg | time over which L-NAME induced hypertension was counteracted after treatment ([5]; 5-ISMN 30 mg/kg, single oral administration): ≤ 3 h | efficacy against L-NAME-induced hypertension after 5-day treatment (nitrate tolerance), in words ([6]; 5-ISMN 30 mg/kg oral, 5 days): did not maintain its efficacy in preventing L-NAME-induced hypertension | Delta vs basal (mmHg) ([6]; acute treatment, 5-ISMN 30 mg/kg oral): 10.5 ± 6.1 mmHg | Delta vs basal (mmHg) ([6]; repeated (5 days) oral treatment, 5-ISMN 30 mg/kg): 88 ± 11.5 mmHg | vascular response of aortas from treated animals vs control arteries, in words ([7]; 5-ISMN 30 mg/kg, repeated treatment): showed a reduced vascular response to 5-ISMN compared to control arteries | EC50 ([7]; acute, aortas of rats given 5-ISMN 30 mg/kg): 20 ± 0.6 µM | EC50 ([7]; repeated (5 days oral) 5-ISMN 30 mg/kg): 127 ± 48 µM

COC1=C(OC)C(=O)C(CCCCCCCCCCO[15N+](=O)[O-])=C(C)C1=O [^15N-Compound (6), 10-(4,5-dimethoxy-2-methyl-3,6-dioxocyclohexa-1,4-dienyl)decyl nitrate-nitrogen-15]
15N-nitrite AUC0-24 ([1]; oral 100 mg/kg): 1225 µM·min | 15N-nitrite Tmax ([1]; oral 100 mg/kg): 30 min | 15N-nitrite AUC0-24 [2]: 2469 µM·min | 15N-nitrite Tmax [2]: 180 min

COC1=C(OC)C(=O)C(CCCCCCCCCCO[N+](=O)[O-])=C(C)C1=O [^15N-Compound (6), 10-(4,5-dimethoxy-2-methyl-3,6-dioxocyclohexa-1,4-dienyl)decyl nitrate-nitrogen-15]
Cmax ([1]; oral 100 mg/kg): 3.1 ± 0.3 µM | Cmax [2]: 2.6 ± 0.2 µM
